Laboratory results from PMC4854315, “Discovery of a novel allosteric inhibitor-binding site in ERK5: comparison with the canonical kinase hinge ATP-binding site” (Acta Crystallographica. Section D, Structural Biology, 2016).

How the values were obtained:
Test in all cases: Z'-LYTE kinase panel
Type in all cases: biochemical
HIPK2 = target: T1, HIPK2 (Homo sapiens, UniProt Q9H2X6)
T1 construct: purchased ThermoFisher (SelectScreen, Z'-LYTE)
Method in brief: (§1)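 Z′-LYTE, standard conditions; 10 µM test compound; values = % inhibition; broad panel of 225 kinases.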

FER = target: T2, FER (Homo sapiens, UniProt P16591)
T2 construct: purchased ThermoFisher (SelectScreen, Z'-LYTE)
T2 sequence (P16591 whole entry): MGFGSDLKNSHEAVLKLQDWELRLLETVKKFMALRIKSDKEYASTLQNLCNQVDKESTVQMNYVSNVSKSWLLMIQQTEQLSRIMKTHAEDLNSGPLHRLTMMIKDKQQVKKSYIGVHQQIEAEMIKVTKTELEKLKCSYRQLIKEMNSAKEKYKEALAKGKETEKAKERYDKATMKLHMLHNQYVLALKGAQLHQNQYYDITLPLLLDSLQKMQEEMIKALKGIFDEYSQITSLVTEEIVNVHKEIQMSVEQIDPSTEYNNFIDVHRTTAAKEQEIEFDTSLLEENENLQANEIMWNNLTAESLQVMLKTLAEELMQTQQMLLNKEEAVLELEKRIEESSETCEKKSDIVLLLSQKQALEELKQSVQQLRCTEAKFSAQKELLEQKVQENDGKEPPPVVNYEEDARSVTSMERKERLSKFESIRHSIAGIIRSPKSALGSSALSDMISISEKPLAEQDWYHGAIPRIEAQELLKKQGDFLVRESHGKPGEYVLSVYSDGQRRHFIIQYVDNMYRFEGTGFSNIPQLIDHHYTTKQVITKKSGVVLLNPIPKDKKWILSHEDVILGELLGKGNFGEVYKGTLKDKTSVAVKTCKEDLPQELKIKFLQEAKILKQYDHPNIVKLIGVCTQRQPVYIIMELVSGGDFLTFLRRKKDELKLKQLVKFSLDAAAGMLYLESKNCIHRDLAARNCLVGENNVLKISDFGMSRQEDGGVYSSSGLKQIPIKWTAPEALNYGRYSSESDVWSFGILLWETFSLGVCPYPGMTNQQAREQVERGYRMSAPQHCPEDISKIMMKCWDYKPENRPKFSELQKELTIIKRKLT
Method in brief: as §1

PAK7 (KIAA1264) = target: T3, PAK7 (KIAA1264) (Homo sapiens, UniProt Q9P286)
T3 construct: purchased ThermoFisher (SelectScreen, Z'-LYTE)
T3 sequence (Q9P286 whole entry): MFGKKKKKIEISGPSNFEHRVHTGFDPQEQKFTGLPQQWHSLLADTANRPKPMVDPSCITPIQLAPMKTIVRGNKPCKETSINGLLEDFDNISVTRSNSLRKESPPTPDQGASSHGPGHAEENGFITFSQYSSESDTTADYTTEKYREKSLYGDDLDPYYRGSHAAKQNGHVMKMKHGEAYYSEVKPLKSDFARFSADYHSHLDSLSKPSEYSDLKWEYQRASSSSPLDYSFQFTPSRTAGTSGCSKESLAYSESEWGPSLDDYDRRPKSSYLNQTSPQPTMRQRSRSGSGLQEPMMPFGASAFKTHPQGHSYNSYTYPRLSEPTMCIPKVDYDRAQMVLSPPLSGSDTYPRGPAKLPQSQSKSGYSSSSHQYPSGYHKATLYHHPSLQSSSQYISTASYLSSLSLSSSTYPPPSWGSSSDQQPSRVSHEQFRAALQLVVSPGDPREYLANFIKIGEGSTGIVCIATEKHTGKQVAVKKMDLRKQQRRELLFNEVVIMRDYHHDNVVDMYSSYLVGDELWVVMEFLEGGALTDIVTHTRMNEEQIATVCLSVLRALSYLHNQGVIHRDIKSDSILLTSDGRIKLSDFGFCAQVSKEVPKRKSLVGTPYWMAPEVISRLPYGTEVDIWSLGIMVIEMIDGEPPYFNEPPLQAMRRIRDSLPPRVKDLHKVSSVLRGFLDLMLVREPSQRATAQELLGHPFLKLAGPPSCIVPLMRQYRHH
Method in brief: as §1

ZAP70 = target: T4, ZAP70 (Homo sapiens, UniProt P43403)
T4 construct: purchased ThermoFisher (SelectScreen, Z'-LYTE)
T4 sequence (P43403 1-619): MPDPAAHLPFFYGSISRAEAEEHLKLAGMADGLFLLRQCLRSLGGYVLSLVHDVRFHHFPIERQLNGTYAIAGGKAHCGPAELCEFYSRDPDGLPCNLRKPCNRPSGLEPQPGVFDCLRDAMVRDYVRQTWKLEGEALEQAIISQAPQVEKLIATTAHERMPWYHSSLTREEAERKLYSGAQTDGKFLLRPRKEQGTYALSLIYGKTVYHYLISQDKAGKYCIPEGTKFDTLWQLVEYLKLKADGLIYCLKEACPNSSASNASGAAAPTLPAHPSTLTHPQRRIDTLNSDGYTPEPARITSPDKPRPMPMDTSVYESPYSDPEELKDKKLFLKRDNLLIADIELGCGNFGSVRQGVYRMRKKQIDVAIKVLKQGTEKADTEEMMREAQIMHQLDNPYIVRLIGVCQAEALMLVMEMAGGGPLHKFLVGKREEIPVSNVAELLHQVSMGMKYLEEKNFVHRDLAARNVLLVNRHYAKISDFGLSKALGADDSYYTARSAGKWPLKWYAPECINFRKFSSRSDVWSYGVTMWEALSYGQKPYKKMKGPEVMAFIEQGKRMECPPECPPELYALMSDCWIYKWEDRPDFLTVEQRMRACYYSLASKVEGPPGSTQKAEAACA
Method in brief: as §1

DYRK1B = target: T5, DYRK1B (Homo sapiens, UniProt Q9Y463)
T5 construct: purchased ThermoFisher (SelectScreen, Z'-LYTE)
T5 sequence (Q9Y463 whole entry): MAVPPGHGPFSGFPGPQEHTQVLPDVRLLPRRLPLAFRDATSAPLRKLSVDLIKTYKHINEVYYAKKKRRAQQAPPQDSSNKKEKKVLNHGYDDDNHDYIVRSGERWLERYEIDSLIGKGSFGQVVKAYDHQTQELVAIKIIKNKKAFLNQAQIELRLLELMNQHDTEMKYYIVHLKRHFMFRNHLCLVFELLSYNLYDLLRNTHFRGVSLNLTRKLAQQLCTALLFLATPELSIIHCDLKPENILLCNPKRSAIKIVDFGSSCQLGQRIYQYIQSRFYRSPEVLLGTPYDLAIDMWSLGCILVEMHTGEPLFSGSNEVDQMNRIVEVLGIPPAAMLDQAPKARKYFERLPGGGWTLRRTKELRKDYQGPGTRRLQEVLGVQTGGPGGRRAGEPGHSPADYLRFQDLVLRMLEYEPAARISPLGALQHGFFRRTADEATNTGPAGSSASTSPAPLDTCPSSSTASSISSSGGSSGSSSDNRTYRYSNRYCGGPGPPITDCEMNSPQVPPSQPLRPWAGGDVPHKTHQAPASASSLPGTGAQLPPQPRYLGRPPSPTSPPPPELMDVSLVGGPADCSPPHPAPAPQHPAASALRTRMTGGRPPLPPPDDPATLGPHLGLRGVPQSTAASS
Method in brief: as §1

FLT3 = target: T6, FLT3 (Homo sapiens, UniProt P36888)
T6 construct: purchased ThermoFisher (SelectScreen, Z'-LYTE)
T6 sequence (P36888 27-993): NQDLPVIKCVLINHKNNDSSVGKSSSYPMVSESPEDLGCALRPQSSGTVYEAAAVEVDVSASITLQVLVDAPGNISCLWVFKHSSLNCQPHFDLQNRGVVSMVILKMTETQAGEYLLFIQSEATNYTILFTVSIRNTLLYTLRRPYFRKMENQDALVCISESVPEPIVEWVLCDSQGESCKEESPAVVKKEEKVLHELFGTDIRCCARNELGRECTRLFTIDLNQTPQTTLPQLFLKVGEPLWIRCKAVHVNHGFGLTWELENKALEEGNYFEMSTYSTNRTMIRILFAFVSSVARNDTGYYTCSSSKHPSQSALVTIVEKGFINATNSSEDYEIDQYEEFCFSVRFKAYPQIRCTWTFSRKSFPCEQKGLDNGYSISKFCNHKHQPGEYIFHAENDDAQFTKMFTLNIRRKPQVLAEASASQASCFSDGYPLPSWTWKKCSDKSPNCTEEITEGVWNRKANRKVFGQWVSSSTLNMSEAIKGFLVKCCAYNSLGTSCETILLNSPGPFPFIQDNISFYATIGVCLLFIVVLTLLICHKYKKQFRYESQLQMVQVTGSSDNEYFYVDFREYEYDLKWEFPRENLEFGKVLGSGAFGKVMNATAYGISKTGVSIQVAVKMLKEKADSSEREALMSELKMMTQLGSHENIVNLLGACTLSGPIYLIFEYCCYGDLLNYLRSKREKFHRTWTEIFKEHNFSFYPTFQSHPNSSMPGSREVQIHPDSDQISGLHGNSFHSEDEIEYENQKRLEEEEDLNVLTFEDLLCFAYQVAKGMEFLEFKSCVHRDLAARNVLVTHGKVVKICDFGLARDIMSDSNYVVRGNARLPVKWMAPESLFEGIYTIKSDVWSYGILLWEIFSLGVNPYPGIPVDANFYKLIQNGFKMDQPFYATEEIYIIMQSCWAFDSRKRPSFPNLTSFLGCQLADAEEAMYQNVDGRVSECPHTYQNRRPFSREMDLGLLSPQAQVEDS
Method in brief: as §1

CAMK2D (CaMKII delta) = target: T7, CAMK2D (CaMKII delta) (Homo sapiens, UniProt Q13557)
T7 construct: purchased ThermoFisher (SelectScreen, Z'-LYTE)
Method in brief: as §1

RPS6KA3 (RSK2) = target: T8, RPS6KA3 (RSK2) (Homo sapiens, UniProt P51812)
T8 construct: purchased ThermoFisher (SelectScreen, Z'-LYTE)
T8 sequence (P51812 whole entry): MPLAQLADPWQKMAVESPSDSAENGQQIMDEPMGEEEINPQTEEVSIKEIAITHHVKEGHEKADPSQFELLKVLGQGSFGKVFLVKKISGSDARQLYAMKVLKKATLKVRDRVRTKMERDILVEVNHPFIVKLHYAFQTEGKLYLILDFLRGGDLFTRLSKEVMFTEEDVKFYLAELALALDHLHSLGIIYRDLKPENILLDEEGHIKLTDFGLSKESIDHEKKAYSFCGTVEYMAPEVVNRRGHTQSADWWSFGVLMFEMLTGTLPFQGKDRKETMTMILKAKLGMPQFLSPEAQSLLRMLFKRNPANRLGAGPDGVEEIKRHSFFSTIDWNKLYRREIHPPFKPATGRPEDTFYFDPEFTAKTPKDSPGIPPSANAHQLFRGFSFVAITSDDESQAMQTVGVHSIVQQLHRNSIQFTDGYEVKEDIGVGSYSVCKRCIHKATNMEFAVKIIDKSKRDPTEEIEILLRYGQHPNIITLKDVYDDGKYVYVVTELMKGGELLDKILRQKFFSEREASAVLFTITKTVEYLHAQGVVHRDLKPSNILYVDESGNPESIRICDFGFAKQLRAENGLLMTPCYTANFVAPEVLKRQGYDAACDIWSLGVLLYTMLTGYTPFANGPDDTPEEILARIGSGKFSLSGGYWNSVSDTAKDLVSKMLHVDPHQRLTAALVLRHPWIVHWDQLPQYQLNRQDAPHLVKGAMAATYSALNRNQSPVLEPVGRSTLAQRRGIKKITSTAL
Method in brief: as §1

PRKCZ (PKC zeta) = target: T9, PRKCZ (PKC zeta) (Homo sapiens, UniProt Q05513)
T9 construct: purchased ThermoFisher (SelectScreen, Z'-LYTE)
T9 sequence (Q05513 1-592): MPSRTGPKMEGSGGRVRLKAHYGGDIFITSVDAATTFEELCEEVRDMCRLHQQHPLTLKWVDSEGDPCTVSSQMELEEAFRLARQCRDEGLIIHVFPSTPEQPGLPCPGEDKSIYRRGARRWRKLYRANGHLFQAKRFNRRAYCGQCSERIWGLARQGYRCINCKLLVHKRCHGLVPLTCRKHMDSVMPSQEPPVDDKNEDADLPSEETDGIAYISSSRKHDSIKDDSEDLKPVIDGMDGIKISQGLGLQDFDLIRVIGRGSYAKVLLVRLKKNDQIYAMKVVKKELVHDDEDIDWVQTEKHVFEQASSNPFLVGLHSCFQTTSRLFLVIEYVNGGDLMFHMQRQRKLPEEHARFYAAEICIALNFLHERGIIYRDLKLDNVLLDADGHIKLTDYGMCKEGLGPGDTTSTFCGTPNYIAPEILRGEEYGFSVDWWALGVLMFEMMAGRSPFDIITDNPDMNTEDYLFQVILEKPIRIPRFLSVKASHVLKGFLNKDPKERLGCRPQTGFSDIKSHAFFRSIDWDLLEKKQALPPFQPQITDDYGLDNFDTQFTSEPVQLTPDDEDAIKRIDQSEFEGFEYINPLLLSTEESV
Method in brief: as §1

T1 sequence (Q9H2X6 whole entry): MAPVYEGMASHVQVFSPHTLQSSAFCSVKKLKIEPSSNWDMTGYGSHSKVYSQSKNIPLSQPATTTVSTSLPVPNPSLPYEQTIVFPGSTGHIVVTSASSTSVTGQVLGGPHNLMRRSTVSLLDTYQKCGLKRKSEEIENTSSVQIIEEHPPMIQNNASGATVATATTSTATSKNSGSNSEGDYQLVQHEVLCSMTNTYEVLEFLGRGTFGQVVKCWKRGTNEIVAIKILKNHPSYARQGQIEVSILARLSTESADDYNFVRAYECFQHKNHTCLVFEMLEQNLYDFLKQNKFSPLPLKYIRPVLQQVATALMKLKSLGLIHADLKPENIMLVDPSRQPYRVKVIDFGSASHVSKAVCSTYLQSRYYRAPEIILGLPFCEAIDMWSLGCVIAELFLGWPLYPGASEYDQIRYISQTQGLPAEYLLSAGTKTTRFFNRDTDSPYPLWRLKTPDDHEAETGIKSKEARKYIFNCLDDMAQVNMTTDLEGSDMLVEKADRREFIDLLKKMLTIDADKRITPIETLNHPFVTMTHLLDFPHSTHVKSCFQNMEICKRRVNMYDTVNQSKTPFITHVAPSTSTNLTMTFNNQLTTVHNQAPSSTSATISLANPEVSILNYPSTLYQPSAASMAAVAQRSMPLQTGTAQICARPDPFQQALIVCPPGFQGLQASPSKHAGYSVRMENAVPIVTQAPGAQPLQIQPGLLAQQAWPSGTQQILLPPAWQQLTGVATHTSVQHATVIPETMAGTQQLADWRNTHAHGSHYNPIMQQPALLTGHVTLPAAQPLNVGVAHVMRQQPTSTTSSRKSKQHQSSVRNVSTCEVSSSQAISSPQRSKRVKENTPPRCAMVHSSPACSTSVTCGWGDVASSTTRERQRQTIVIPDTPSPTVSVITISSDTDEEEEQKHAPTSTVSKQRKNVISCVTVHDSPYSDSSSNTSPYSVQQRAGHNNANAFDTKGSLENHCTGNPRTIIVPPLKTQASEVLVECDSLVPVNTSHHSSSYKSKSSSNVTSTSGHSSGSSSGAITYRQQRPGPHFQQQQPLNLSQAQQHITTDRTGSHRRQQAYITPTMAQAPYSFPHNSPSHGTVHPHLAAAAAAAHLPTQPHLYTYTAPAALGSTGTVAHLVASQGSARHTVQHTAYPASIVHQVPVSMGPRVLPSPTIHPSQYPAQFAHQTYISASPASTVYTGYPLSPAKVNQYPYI

Compound	HIPK2 % Inhibition (HIPK2; 10 µM compound, ATP Km app)	FER % Inhibition (FER; 10 µM compound, ATP Km app)	PAK7 (KIAA1264) % Inhibition (PAK7 (KIAA1264); 10 µM compound, ATP Km app)	ZAP70 % Inhibition (ZAP70; 10 µM compound, ATP Km app)	DYRK1B % Inhibition (DYRK1B; 10 µM compound, ATP Km app)	FLT3 % Inhibition (FLT3; 10 µM compound, ATP Km app)	CAMK2D (CaMKII delta) % Inhibition (CAMK2D (CaMKII delta); 10 µM compound, ATP Km app)	RPS6KA3 (RSK2) % Inhibition (RPS6KA3 (RSK2); 10 µM compound, ATP Km app)	PRKCZ (PKC zeta) % Inhibition (PRKCZ (PKC zeta); 10 µM compound, ATP Km app)	inhibition at 10 µM (HIPK2)	inhibition at 10 µM (FER)	inhibition at 10 µM (PAK7 (KIAA1264))	inhibition at 10 µM (ZAP70)	inhibition at 10 µM (DYRK1B)	inhibition at 10 µM (FLT3)	inhibition at 10 µM (CAMK2D (CaMKII delta))	inhibition at 10 µM (RPS6KA3 (RSK2))	inhibition at 10 µM (PRKCZ (PKC zeta))
XMD8-92 [Compound 2, reference compound]	2%	79%	6%	12%	12%	90%	63%	98%	-2.33%	–	–	–	–	–	–	–	–	–
Cc1ncc(-c2nc(Nc3ccc(C(=O)NCCN4CCCCC4)cc3)ncc2F)n1C(C)C [Compound 3]	–	–	–	–	–	–	–	–	–	93%	105%	71%	19%	100%	101%	88%	81%	18%
Cc1cc(Nc2nc(N)nn2C(=O)NC(C)C)ccc1Cl [Compound 5]	–	–	–	–	–	–	–	–	–	45%	22%	26%	12%	-4%	55%	-2.38%	37%	4%
